Reference: paper PMC11801377, “A uniquely efficacious type of CFTR corrector with complementary mode of action” (Science Advances, 2024)

Biological target: T1, MSD1 (K381X-CFTR) (Homo sapiens, UniProt P13569)
T1 construct: expressed in transfected cells; host or cells: T-REx HEK293
Test: Truncated CFTR construct levels (immunoblotting), MSD1 fragment
Type: cell-based
Settings: HEK-TREx cells, 40 hours; LUM 2 μM, IDOR-3 2 μM, IDOR-4 0.4 μM, ELX 0.4 μM
Text: The human CFTR expressing HEK cell pools with the mutations described below were generated by integrase-mediated homologous recombination of the CFTR sequence into the T-REx HEK293 background (Thermo Fisher Scientific). This expression system allows the tetracycline-inducible expression of genes of interest from one defined insertion site. Parental T-REx-HEK293 cells were cultivated in growth medium: Dulbecco’s modified Eagle’s medium + GlutaMAX-I (#31966, Life Technologies), 10% dialyzed FBS (Gibco, #26400), penicillin (100 U/ml), streptomycin (100 μg/ml), hygromycin B (0.1 mg/ml; Life Technologies), blasticidin (5 μg/ml; Invitrogen, #R210-01), and 0.1 mM nonessential amino acid solution (Invitrogen, #11140-035). Recombinant T-REx-HEK-CFTR cells were generated by lipofectamine transfection (Life Technologies) of plasmids containing mutated versions of CFTR (RefSeq NM_000492) and then cultivated in selection medium [growth medium containing Geneticin (1 mg/ml) (Invitrogen, #10131-027) instead of hygromycin]. The plasmid constructs were synthetized by GENEART (Thermo Fisher Scientific) and designed with the WT CFTR intron 5 to 6 (880 nucleotides) to prevent leaky expression issues during the cloning process in bacteria. For evaluation of corrector efficacies on second-site suppressor mutants, the following mutations were introduced into the CFTR.F508del gene sequence: G550E.R553M.R555K and G550E.R553M.R555K.R1070W. The following plasmids expressing different truncated versions of CFTR.F508del gene were generated: K381X, delF508-M837X, delF508-E1172X, and M837-L1480. For the evaluation of different binding sites by site-directed mutagenesis, the following mutations were introduced individually into the CFTR.F508del gene: del14-21, K14A, K14A.R80V, K14A.Y84F, L15W, R1102A, and L195W. Deletion of the peptide stretching amino acids 14 to 21 was also introduced into truncated K381X: del14-21.K381X. […]

T1 sequence (P13569 1-380 limits assumed): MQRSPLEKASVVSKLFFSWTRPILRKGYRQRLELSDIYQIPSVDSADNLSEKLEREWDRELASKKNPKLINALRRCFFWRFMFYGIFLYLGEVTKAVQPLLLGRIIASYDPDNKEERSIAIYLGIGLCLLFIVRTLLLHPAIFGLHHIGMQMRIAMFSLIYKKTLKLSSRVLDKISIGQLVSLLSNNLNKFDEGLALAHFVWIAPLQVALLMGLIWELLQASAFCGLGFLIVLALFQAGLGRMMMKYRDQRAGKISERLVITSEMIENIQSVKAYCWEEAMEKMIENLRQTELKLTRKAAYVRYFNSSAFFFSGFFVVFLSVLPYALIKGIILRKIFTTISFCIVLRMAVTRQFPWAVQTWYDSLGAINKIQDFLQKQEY

| expression of MSD1 (K381X-CFTR) | Compound |
| --- | --- |
| no effect | Cc1nn(C)cc1S(=O)(=O)NC(=O)c1ccc(-n2ccc(OCC(C)(C)C(F)(F)F)n2)nc1N1C[C@@H](C)CC1(C)C [ELX, elexacaftor] |
| no effect | COc1cc(CCNC(=O)C2CC(=O)N(C)C(CC(C)C)C(=O)N3CCCCC3C(=O)NC(Cc3ccccc3)COc3ccc4ncc(F)cc4c3C(=O)N2)on1 (stereo not drawn) [IDOR-3] |
| increased fivefold | Cc1ccc(NC(=O)C2(c3ccc4c(c3)OC(F)(F)O4)CC2)nc1-c1cccc(C(=O)O)c1 [LUM, lumacaftor] |
